Experiments:
pubertal rats = experiment: growth stimulator efficiency in pubertal rats (Example 11, Table 6); type: in vivo, rat
Procedure: (§1) The efficiency of the growth stimulator was studied on young rats. The experiment was carried out with nondescript young rats weighting about 75 g in groups of 30 animals in each. The growth stimulator was administered perorally to each rat as an aqueous solution at a rate of from 0.1 to 0.001% by weight of the consumed daily diet. The administration of the growth stimulator was effected every day during 10 days. The observation period was 20 days; the rats were weighed after every 4 days. […] On completion of the experiment the animals were killed and the parenchymatous organs and peripheral blood were analyzed.
The growth stimulator efficiency was studied on pubertal rats. The experiment conditions were similar to those described in the foregoing Example 10.

[1] = test system: microbless pig mini-sucklings; experiment: growth stimulant efficiency in microbless pig mini-sucklings (Example 8, Table 3); type: in vivo
Procedure: The efficiency of the growth stimulant for animals according to the present invention was tested in feeding of microbless animals. The test was carried out in microbless pig mini-sucklings grown without under sterile conditions in a comparison with pig mini sucklings grown keeping to the requirements of sterile conditions, since birth and to the age of two-months, a feedstuff containing 0.04% by weight of the active principle. Their growth was compared to that of 10 sucklings grown without keeping to sterility conditions and the development of 7 microbless pig sucklings. By the end of the experiment the test pig sucklings were 17.2% heavier than the microbless pig sucklings given no growth stimulant and 18.2% heavier than the sucklings grown under nonsterile conditions and given no growth stimulator.

solubility = type: physicochemical
Procedure: The compound according to the present invention, viz. 3-(2,2,2-trimethylhydrazinium)propionate comprises a colourless crystalline powder with a melting point of 254°-256° C. (from ethanol). […] (p.p.m.): 6.70 singlet, (CH3)3 N; 6.89, triplet, CH2,

[2] = test system: barley, oats, rye and wheat; experiment: growth-controlling activity on plants; type: in vivo
From the text: (§2) The study of specific activity of 3-(2,2,2-trimethylhydrazinium)-propionatewas effected on various animals: mice, rats, pigs, cattle, chickens, goslings, turkey poults and ducklings. The growth-controlling activity of this compound relative to plats has been studied on barley, oats, rye and wheat.

white mice = experiment: in vivo; conditions: mouse
Procedure: (§3) The toxicological study of 3-(2,2,2-trimethylhydrazinium)-propionate on white mice weighing 20-25 g has shown that with a single peroral administration to the animals in doses of up to 23,000 mg/kg the preparation causes no death of the animals.

in vivo = experiment: in vivo; design: species or system white mice; conditions: mouse, ip
Procedure: as §3

chicks [3] = experiment: growth stimulant efficiency in chicks, 0.04% in feedstuff (Example 7, Table 2); type: in vivo; conditions: 0.04% by weight in feedstuff
Procedure: (§4) The growth stimulator for animals and fowl containing 3-(2,2,2-trimethylhydrazinium)-propionate as the active principle is tested for efficiency. The test is conducted in chicks of 6 days of age, the test group consisting of 50 chicks and the control group--50 chicks. The test chicks were fed with a feedstuff containing 0.02% by weight of the active principle, the control group--only basic diet without the addition of the active principle. The chicks' diet contained, % by weight: barley--20, wheat--6, corn--40, sunflower and soya-bean grist--19, fish flour--7, meat-bone flour--3, yeast--5. One kilogram of the feedstuff contained 1.25 feeding unit, 3,135 kCal of exchange energy, 21% of a crude protein, 4% of crude cellulose and 197 g of digestable protein.
The experiment for testing efficiency of the growth stimulant for animals and fowl according to the present invention was carried out following the procedure similar to that described in the foregoing Example 6; added to the feedstuff was 0.04% by weight of the active principle based on the feedstuff weight. By the end of the 34-days' period the chicks of the test groups fed with the growth stimulant were 12.9% heavier.

young rats = experiment: growth stimulator efficiency in young rats (Example 10, Table 5); type: in vivo, rat
Procedure: as §1

animals and fowl = experiment: specific (growth-stimulating) activity on animals and fowl, general; type: in vivo
From the text: as §2

white-breed young pigs = experiment: growth stimulator efficiency in white-breed young pigs (Example 9, Table 4); type: in vivo, pig; conditions: 0.02% by weight, 122 days
Procedure: The efficiency of the growth stimulator was tested on white-breed young pigs deprived of mother's milk with the body weight of about 20 kg, […], in each group.
The young pigs were in the same pig sty and serviced by one operator; all of the animals were on the same diet consisting of barley flour, green mass of a vetch-oat mixture and whey. The animals were fed two times a day with free watering. To the feedstuff of the test group there were added 200 mg of 3-(2,2,2-trimethylhydrazinium)propionate per 1 kg of dry substance of the feed-stuff (0.02% by weight of the active principle).

chicks [4] = experiment: growth stimulator efficiency in chicks, 0.02% in feedstuff (Example 6, Table 1); type: in vivo; conditions: 0.02% by weight in feedstuff
Procedure: as §4

[5] = 0.001% of the active principle, day 4
[6] = 0.001% of the active principle, day 8
[7] = 0.001% of the active principle, day 12
[8] = 0.001% of the active principle, day 16
[9] = 0.001% of the active principle, day 20
[10] = 0.01% of the active principle, day 4
[11] = 0.01% of the active principle, day 8
[12] = 0.01% of the active principle, day 12
[13] = 0.01% of the active principle, day 16
[14] = 0.01% of the active principle, day 20

C[N+](C)(C)NCCC(=O)[O-] [3-(2,2,2-trimethylhydrazinium)-propionate]
Weight on the weighing day (pubertal rats; [5]): 175 g
Weight on the weighing day (pubertal rats; [6]): 189 g
Weight on the weighing day (pubertal rats; [7]): 210 g
Weight on the weighing day (pubertal rats; [8]): 231 g
Weight on the weighing day (pubertal rats; [9]): 248 g
Weight on the weighing day (pubertal rats; [10]): 169 g
Weight on the weighing day (pubertal rats; [11]): 175 g
Weight on the weighing day (pubertal rats; [12]): 189 g
Weight on the weighing day (pubertal rats; [13]): 215 g
Weight on the weighing day (pubertal rats; [14]): 229 g
Weight on the weighing day (pubertal rats; 0.1% of the principle, day 4): 155 g
Weight on the weighing day (pubertal rats; 0.1% of the principle, day 8): 161 g
Weight on the weighing day (pubertal rats; 0.1% of the principle, day 12): 174 g
Weight on the weighing day (pubertal rats; 0.1% of the principle, day 16): 187 g
Weight on the weighing day (pubertal rats; 0.1% of the principle, day 20): 203 g
body weight gain (pubertal rats; active principle 0.001% by weight of the dry feedstuff): 13.5%
body weight gain (pubertal rats; active principle 0.101% (so in the source) by weight of the dry feedstuff): 9%
heavier than the microbless pig sucklings given no growth stimulant ([1]; 0.04% by weight, 2 months' age): 17.2%
heavier than the sucklings grown under nonsterile conditions and given no growth stimulator ([1]; 0.04% by weight, 2 months' age): 18.2%
Animal weight at the 2-months' age ([1]; microbless mini-pigs, 0.04% by weight of feedstuff, untreated microbless 3,271 ± 385, ordinary 3,244 ± 335): 3,833 ± 348 g
solubility in ethanol and methanol (solubility; ethanol and methanol): well soluble
solubility in water (solubility; water): very readily soluble
specific gravity of grain crops ([2]; grain crops): increased
yield gain of crops ([2]; grain crops): 15-30%
increase in the stem diameter of crops ([2]; oats, barley, rye, wheat): 15%
stability against lodging ([2]; oats, barley, rye, wheat): improving their stability against lodging
growth-controlling effect ([2]; plants): clearly pronounced growth-controlling effect
single peroral dose causing no death of the animals (white mice): up to 23,000 mg/kg
NOAEL (in vivo): ≥ 10000 mg/kg
chicks heavier by the end of the 34-days' period (chicks [3]): 12.9%
Average body weight of chicks, aged 30 days (chicks [3]; control 261.9): 268.9 g
Average mass gain for the test time (chicks [3]; control 313 ± 3): 353 ± 8 g
Average body weight of chicks, aged 40 days (chicks [3]; control 364.3): 404.8 g
Average body weight of chicks, aged 6 days (chicks [3]; test beginning): 51.0 g
Percentage to the control (chicks [3]; mass gain, control = 100.0): 112.9%
increase of body weight gain of the rats (young rats; 0.001% by weight of the daily diet): 12.5%
Weight on the day of weighing (young rats; [5]): 76 g
Weight on the day of weighing (young rats; [6]): 99 g
Weight on the day of weighing (young rats; [7]): 131 g
Weight on the day of weighing (young rats; [8]): 154 g
Weight on the day of weighing (young rats; [9]): 164 g
increase of body weight gain of the rats (young rats; 0.01% by weight of the daily diet): 12%
Weight on the day of weighing (young rats; [10]): 79 g
Weight on the day of weighing (young rats; [11]): 93 g
Weight on the day of weighing (young rats; [12]): 125 g
Weight on the day of weighing (young rats; [13]): 139 g
Weight on the day of weighing (young rats; [14]): 158 g
effect on weight gain of the rats (young rats; 0.1% by weight of the daily diet): substantially did not affect the weight gain
Weight on the day of weighing (young rats; 0.1% of the active principle, day 4): 76 g
Weight on the day of weighing (young rats; 0.1% of the active principle, day 8): 95 g
Weight on the day of weighing (young rats; 0.1% of the active principle, day 12): 98 g
Weight on the day of weighing (young rats; 0.1% of the active principle, day 16): 107 g
Weight on the day of weighing (young rats; 0.1% of the active principle, day 20): 129 g
pathology of parenchymatous organs and peripheral blood (young rats; 0.1 to 0.001% by weight of the daily diet, perorally 10 days): No pathology was observed
growth-stimulating activity (animals and fowl; animals and fowl): clearly pronounced growth-stimulating activity
daily weight gain (animals and fowl; depending on the variety of animals and fowl): 8-24%
metabolism (animals and fowl; test animals and fowl): metabolism is improved
reduction of the rate of feedstock consumption per weight gain unit (animals and fowl; test animals and fowl): 7-15%
Average daily weight gain, percent of the control (white-breed young pigs): 112.4% of the control
Feedstuff consumption per 1 kg of the body weight gain, % of control (white-breed young pigs): 92.9 % of control
weight gain higher as compared to the control group animals (white-breed young pigs): 7.4 kg
Feedstuff consumption per 1 kg of the body weight gain (white-breed young pigs; control 4.38): 4.07 feeding units
Body weight gain during the test period (white-breed young pigs; control 59.0 ± 2.1): 66.4 ± 3.6 kg
Average body weight by the test end (white-breed young pigs; control 74.0 ± 3.2): 88.2 ± 4.0 kg
Feedstuff consumption during the test period (white-breed young pigs; control 285.5): 270.7 feeding units
Average daily weight gain (white-breed young pigs; control 484 ± 17): 544 ± 32 g
reduction of consumption of feeding units per kilogram of the weight gain (white-breed young pigs; vs control): 7.1%
Average body weight of chicks, aged 30 days (chicks [4]): 289.4 g
weight gain compared to the control chicks (chicks [4]; 34 days): 7.7%
Average gain for the test time (chicks [4]; 34 days, control 364.5 ± 10.1): 392.7
Average body weight of chicks, aged 40 days (chicks [4]; end of 34 days, control 412.2 g): 440.5 g
Average body weight of chicks, aged 6 days (chicks [4]; test beginning (6 days of age)): 47.8 g
Percentage to the control (chicks [4]; average gain, control = 100.0): 107.7%

Source: patent publication US4481218A, “3-(2,2,2-Trimethylhydrazinium)propionate and method for the preparation and use thereof” (Institut Organicheskogo Sinteza Akademii Nauk Latviiskoi SSR, priority 1978, dated 1984)
